Assay [1] concerns collagen 3A1 gene expression. Description: Real-time RT-PCR in HSC, collagen 3A1. To be noted: 0.625 μM, FIG. 8. The format is cell-based, human. On the procedure:
(§1) Human Hepatic Stellate cells (LX-2 cell line) (HSCs) were obtained from the Key Lab of Regenerative Medicine, Jinan University, Guangzhou, China, which were maintained in Dulbecco's Modified Eagle Medium (DMEM)+10% fetal calf serum and penicillin-streptomycin (100 unit/ml and 0.1 mg/ml, respectively), in 5% CO2 at 37° C. inside a humidified cell incubator. The culture medium was changed every three days. To test the effects of small molecule Hesperadin on the mouse and human HSCs, the cultures were treated with 0.625 μM of Hesperadin for 48 hrs. […] The proliferation of HSCs was also evaluated by the MTT staining assay with 3-(4,5-Dimethylthiazol-2-yl)-2,5-diphenyltetrazolium bromide). […] The absorbance (at 570 nm) was measured using a BIORAD 3550 Microplate Reader. […]
(§2) Collagen type-I, -III and -VI, MMP-2, MMP-9 and TIMP-1 gene expression was determined using quantitative real-time PCR. […] Quantitation of mRNA levels was performed using a SYBR® Premix Ex Taq™ Kit (Takara) in an Applied Biosystems 7900HT Fast Real-Time PCR System. To quantify the amount of specific mRNA in the samples, a standard curve was generated for each PCR run using four amounts of the cDNA synthesized from our HSC cultures and liver samples. […] Data was analyzed using a StatView software (Abacus Concepts Inc) with Student's t-test.

A further assay relates to MMP-9 gene expression. Kind of assay: Real-time RT-PCR in HSC, MMP-9. The format is cell-based, human. To be noted: 0.625 μM, FIG. 10. Here is the method:
as §1, §2
(In general: Real-time PCR tracks product formation cycle by cycle.)

Assay [2] deals with collagen type I in fibrotic liver. Kind of assay: Carbon tetrachloride liver fibrosis mouse model, immunohistological staining for collagen type I. In kind it is in vivo, mice. On the procedure:
The ability of Hesperadin to inhibit collagen expressions in a liver fibrosis mouse model was then examined. To induce fibrosis in the liver, mice were injected with carbon tetrachloride, twice a week, for 6 weeks. In control group of mice, they were injected with DMSO/saline, twice a week for 2 weeks. For the experimental group of mice, they were injected with either 50 or 500 μg/kg Hesperadin after chronic carbon tetrachloride treatment. […] In contrast, following chronic carbon tetrachloride treatment, collagen type I was expressed strongly at the lobules, the portal areas, the lining of the sinusoid and around the central veins (FIGS. 12A and 12B). […] In mice of carbon tetrachloride treatment alone, collagen type I was strongly expressed in the periphery of the hepatic sinusoids. Forty female ICR mice (6 weeks old) were acquired from the MOE Key laboratory for Regenerative Medicine. To induce liver fibrosis, the mice were injected i.p. with carbon tetrachloride (1.65 ml/kg body weight suspended in 0.1 ml olive oil) twice per week for a total of 6 weeks. In the control group, mice received carbon tetrachloride injection for 6 weeks followed by DMSO or saline injections, twice a week, for two weeks. In the experimental group, mice received carbon tetrachloride for 6 weeks followed by i.p. injections of 50 μg/kg or 500 μg/kg Hesperadin, twice a week, for two weeks. […] The extent of fibrosis was scored according to Zhou, et al. (5): 1=thickened perivenular collagen and a few thin collagen septa; 2=thin septa with incomplete bridging between portal regions; 3=thin septa and extensive bridging; 4=thickened septa with complete bridging of portal regions and a nodular appearance. Collagen content was measured with a Universal Imaging (Chester, Pa.) analysis system. Briefly, trichrome-stained liver sections were analysed using an Axioskope 50 microscope (CarlZeiss Lab). […] Collagen accumulation was calculated as the percentage of the total field at ×40 magnifications that was stained blue. The arrangement and morphology of the hepatocytes will also be examined and recorded. […]

“Also recorded” adds a separate entry of the source.

Take `CCS(=O)(=O)Nc1ccc2c(c1)/C(=C(/Nc1ccc(CN3CCCCC3)cc1)c1ccccc1)C(=O)N2` [Hesperadin, (Z)—N-(2-oxo-3-(Phenyl(4-(piperidin-1-ylmethyl)phenylamino)methylene)indolin-5-yl)ethanesulfonamide]: in assay [1], the “Collagen 3A1 mRNA expression” value is given as “confirmed by real-time RT-PCR analysis”. The “MMP-9 mRNA expression” value with MMP-9 gene expression is “inhibited”. Besides, the “collagen type I in histological liver sections” value in assay [2] (50 μg/kg i.p. twice a week for two weeks after 6 weeks CCl4, mice) was “less collagen type I evident”; in assay [2] (500 μg/kg i.p. twice a week for two weeks after 6 weeks CCl4, mice) it was “less collagen type I evident; also recorded: significantly less collagen staining”. Further, the “quantified intensity of collagen type I staining” value in assay [2] (500 μg/kg, FIG. 13, p<0.05) was “significant reduction in collagen type I production and expression”.
